In patent publication US9777003B2, “Tricyclic heterocycles as bet protein inhibitors” (Incyte Corporation, priority 2013, dated 2017):
Where a name gives a salt, the structure may show the parent alone.

How the values were obtained:
BRD4-BD2 = BRD4-BD2 (Homo sapiens (Human), UniProt O60885); experiment: BRD4 AlphaScreen assay, BRD4-BD2; format: binding; conditions: biotin-labeled tetra-acetylated histone H4 peptide, 75 min, room temperature, read-out: BRD4 BD-2 enzyme IC50
Method in brief: (§1)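 AlphaScreen displacement of 50 nM biotin-tetra-acetylated H4 peptide from 3.8 nM BRD4-BD1 (1.25% DMSO) or 20 nM BRD4-BD2 (0.83% DMSO) in HEPES pH 7.4 buffer, 75 min RT. Streptavidin donor/GSH acceptor beads added, 75 min dark; IC50 from log-concentration curve fit.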

BRD4-BD1 = BRD4-BD1 (Homo sapiens (Human), UniProt O60885); experiment: BRD4 AlphaScreen assay, BRD4-BD1; format: binding; conditions: biotin-labeled tetra-acetylated histone H4 peptide, 75 min, room temperature, read-out: BRD4 BD-1 enzyme IC50
Method in brief: as §1

Molecule `Cc1cc2c(cc(NC3CCCCC3)c3nnc(C)n32)n1Cc1ccccc1` [Example 232, 6-Benzyl-N-cyclohexyl-1,7-dimethyl-6H-pyrrolo[2,3-e][1,2,4]triazolo[4,3-a]pyridin-4-amine] has an IC50 (BRD4-BD2) of 100 to 1000 nM and an IC50 (BRD4-BD1) of 100 to 1000 nM.
For `CC(=O)N1CCC(c2cc3c(ccc4nnc(C)n43)n2Cc2ccccc2)C1` (racemic) [Example 187, 7-(1-Acetylpyrrolidin-3-yl)-6-benzyl-1-methyl-6H-pyrrolo[2,3-e][1,2,4]triazolo[4,3-a]pyridine Trifluoroacetate Salt], the IC50 (BRD4-BD2) was 1000 to 10000 nM and the IC50 (BRD4-BD1) was 1000 to 10000 nM.
Molecule `Cc1cc2c(cc(N[C@H]3CCNC3)c3nnc(C)n32)n1Cc1ccccc1` [Example 152, 6-benzyl-1,7-dimethyl-N-[(3S)-pyrrolidin-3-yl]-6H-pyrrolo[2,3-e][1,2,4]triazolo[4,3-a]pyridin-4-amine bis(trifluoroacetate) Salt] has an IC50 (BRD4-BD2) of no more than 100 nM and an IC50 (BRD4-BD1) of no more than 100 nM.
Work on `Cc1cc2c(ccc3nnc(C)n32)n1Cc1ccc(Cl)cc1` [Example 10, 6-(4-chlorobenzyl)-1,7-dimethyl-6H-pyrrolo[2,3-e][1,2,4]triazolo[4,3-a]pyridine] yielded an IC50 (BRD4-BD2) of no more than 100 nM and an IC50 (BRD4-BD1) of no more than 100 nM.
Molecule `Cc1nnc2ccc3c(ccn3S(=O)(=O)c3ccccc3)n12` [Example 3, 1-methyl-6-(phenylsulfonyl)-6H-pyrrolo[2,3-e][1,2,4]triazolo[4,3-a]pyridine] has an IC50 (BRD4-BD2) of 100 to 1000 nM and an IC50 (BRD4-BD1) of 100 to 1000 nM.
Work on `Cc1cc2c(cc(NC(C)C)c3nnc(C)n32)n1Cc1ccccc1` [Example 263, 6-Benzyl-N-isopropyl-1,7-dimethyl-6H-pyrrolo[2,3-e][1,2,4]triazolo[4,3-a]pyridin-4-amine] yielded an IC50 (BRD4-BD2) of no more than 100 nM and an IC50 (BRD4-BD1) of no more than 100 nM.
Work on `Cc1nnc2ccc3c(cc(-c4ncco4)n3Cc3cc(Cl)cc(CN4CC(O)C4)c3)n12` [Example 198, 1-(3-Chloro-5-{[1-methyl-7-(1,3-oxazol-2-yl)-6H-pyrrolo[2,3-e][1,2,4]triazolo[4,3-a]pyridin-6-yl]methyl}benzyl)azetidin-3-ol bis(trifluoroacetate) Salt] yielded an IC50 (BRD4-BD2) of no more than 100 nM and an IC50 (BRD4-BD1) of no more than 100 nM.
`Cc1cc2c(cc(NC3CCOCC3)c3nnc(C)n32)n1Cc1ccccc1` [Example 146, 6-benzyl-1,7-dimethyl-N-(tetrahydro-2H-pyran-4-yl)-6H-pyrrolo[2,3-e][1,2,4]triazolo[4,3-a]pyridin-4-amine] was tested, and the IC50 (BRD4-BD2) was no more than 100 nM and the IC50 (BRD4-BD1) was no more than 100 nM.
`Cc1cc2c(cc(NC(=O)N(C)C)c3nnc(C)n32)n1Cc1ccccc1` [Example 251, 3-(6-Benzyl-1,7-dimethyl-6H-pyrrolo[2,3-e][1,2,4]triazolo[4,3-a]pyridin-4-yl)-1,1-dimethylurea] showed an IC50 (BRD4-BD2) of no more than 100 nM and an IC50 (BRD4-BD1) of 100 to 1000 nM.
`Cc1nnc2ccc3c(cc(-c4cscn4)n3Cc3ccccc3)n12` [Example 66, 6-benzyl-1-methyl-7-(1,3-thiazol-4-yl)-6H-pyrrolo[2,3-e][1,2,4]triazolo[4,3-a]pyridine] gave an IC50 (BRD4-BD2) of no more than 100 nM and an IC50 (BRD4-BD1) of no more than 100 nM.
`Cc1nnc2ccc3c(cc(-c4ccn(C)n4)n3Cc3cc(Cl)cc(CN4CCOCC4)c3)n12` [Example 192, 6-[3-Chloro-5-(morpholin-4-ylmethyl)benzyl]-1-methyl-7-(1-methyl-1H-pyrazol-3-yl)-6H-pyrrolo[2,3-e][1,2,4]triazolo[4,3-a]pyridine bis(trifluoroacetate) Salt] gave an IC50 (BRD4-BD2) of no more than 100 nM and an IC50 (BRD4-BD1) of no more than 100 nM.
`Cc1cc2c(cc(Nc3cc[nH]n3)c3nnc(C)n32)n1Cc1ccccc1` [Example 200, 6-Benzyl-1,7-dimethyl-N-1H-pyrazol-3-yl-6H-pyrrolo[2,3-e][1,2,4]triazolo[4,3-a]pyridin-4-amine tris(trifluoroacetate) Salt] showed an IC50 (BRD4-BD2) of no more than 100 nM and an IC50 (BRD4-BD1) of no more than 100 nM.
For `CCNCc1cccc(Cn2c(C)cc3c2ccc2nnc(C)n23)c1` [Example 42, N-{3-[(1,7-dimethyl-6H-pyrrolo[2,3-e][1,2,4]triazolo[4,3-a]pyridin-6-yl)methyl]benzyl}ethanamine], the IC50 (BRD4-BD2) was no more than 100 nM and the IC50 (BRD4-BD1) was no more than 100 nM.
With `Cc1cc2c(cc(Nc3ncccn3)c3nnc(C)n32)n1Cc1ccccc1` [Example 201, 6-Benzyl-1,7-dimethyl-N-pyrimidin-2-yl-6H-pyrrolo[2,3-e][1,2,4]triazolo[4,3-a]pyridin-4-amine tris(trifluoroacetate) Salt] the IC50 (BRD4-BD2) was no more than 100 nM and the IC50 (BRD4-BD1) was no more than 100 nM.
`Cc1nnc2ccc3c(cc(-c4cn(CCC#N)cn4)n3Cc3ccccc3)n12` [Example 81, 3-[4-(6-benzyl-1-methyl-6H-pyrrolo[2,3-e][1,2,4]triazolo[4,3-a]pyridin-7-yl)-1H-imidazol-1-yl]propanenitrile] showed an IC50 (BRD4-BD2) of no more than 100 nM and an IC50 (BRD4-BD1) of no more than 100 nM.
`Cc1cc2c(ccc3nnc(C)n32)n1Cc1cccc(CN(C)CCO)c1` [Example 37, 2-[{3-[(1,7-dimethyl-6H-pyrrolo[2,3-e][1,2,4]triazolo[4,3-a]pyridin-6-yl)methyl]benzyl}(methyl)amino]ethanol] gave an IC50 (BRD4-BD2) of no more than 100 nM and an IC50 (BRD4-BD1) of 100 to 1000 nM.
With `Cc1ccccc1Cn1c(C)cc2c1ccc1nnc(C)n12` [Example 17, 1,7-dimethyl-6-(2-methylbenzyl)-6H-pyrrolo[2,3-e][1,2,4]triazolo[4,3-a]pyridine] the IC50 (BRD4-BD2) was no more than 100 nM and the IC50 (BRD4-BD1) was no more than 100 nM.
With `Cc1cc2c(cc(NC3CCN(S(C)(=O)=O)CC3)c3nnc(C)n32)n1Cc1ccccc1` [Example 211, 6-Benzyl-1,7-dimethyl-N-[1-(methylsulfonyl)piperidin-4-yl]-6H-pyrrolo[2,3-e][1,2,4]triazolo[4,3-a]pyridin-4-amine] the IC50 (BRD4-BD2) was no more than 100 nM and the IC50 (BRD4-BD1) was no more than 100 nM.
With `CNC(=O)c1cc2c(ccc3nnc(C)n32)n1Cc1cccc(C(F)(F)F)c1` [Example 136, N,1-dimethyl-6-[3-(trifluoromethyl)benzyl]-6H-pyrrolo[2,3-e][1,2,4]triazolo[4,3-a]pyridine-7-carboxamide Trifluoroacetate Salt] the IC50 (BRD4-BD2) was no more than 100 nM and the IC50 (BRD4-BD1) was no more than 100 nM.
Molecule `CCNC(=O)Nc1cccc(Cn2c(C)cc3c2ccc2nnc(C)n23)c1` [Example 43, N-{3-[(1,7-dimethyl-6H-pyrrolo[2,3-e][1,2,4]triazolo[4,3-a]pyridin-6-yl)methyl]phenyl}-N′-ethylurea Trifluoroacetate Salt] has an IC50 (BRD4-BD2) of no more than 100 nM and an IC50 (BRD4-BD1) of 100 to 1000 nM.
With `Cc1nnc2ccc3c(cc(-c4cn(CCN5CCOCC5)cn4)n3Cc3ccccc3)n12` [Example 75, 6-benzyl-1-methyl-7-[1-(2-morpholin-4-ylethyl)-1H-imidazol-4-yl]-6H-pyrrolo[2,3-e][1,2,4]triazolo[4,3-a]pyridine] the IC50 (BRD4-BD2) was no more than 100 nM and the IC50 (BRD4-BD1) was no more than 100 nM.
`Cc1cc2c(cc(NCCN(C)C)c3nnc(C)n32)n1Cc1ccccc1` [Example 246, N1-(6-Benzyl-1,7-dimethyl-6H-pyrrolo[2,3-e][1,2,4]triazolo[4,3-a]pyridin-4-yl)-N2,N2-dimethylethane-1,2-diamine] showed an IC50 (BRD4-BD2) of no more than 100 nM and an IC50 (BRD4-BD1) of no more than 100 nM.
With `Cc1cc2c(ccc3nnc(C)n32)n1Cc1ccc(CN2CCC2)cc1` [Example 50, 6-[4-(azetidin-1-ylmethyl)benzyl]-1,7-dimethyl-6H-pyrrolo[2,3-e][1,2,4]triazolo[4,3-a]pyridine] the IC50 (BRD4-BD2) was no more than 100 nM and the IC50 (BRD4-BD1) was no more than 100 nM.
Molecule `Cc1cc2c(cc(NC(N)=O)c3nnc(C)n32)n1Cc1ccc(F)c(F)c1` [Example 234, 1-(6-(3,4-Difluorobenzyl)-1,7-dimethyl-6H-pyrrolo[2,3-e][1,2,4]triazolo[4,3-a]pyridin-4-yl)urea] has an IC50 (BRD4-BD2) of no more than 100 nM and an IC50 (BRD4-BD1) of no more than 100 nM.
`CCn1ccc(-c2cc3c(ccc4nnc(C)n43)n2Cc2ccccc2)n1` [Example 79, 6-benzyl-7-(1-ethyl-1H-pyrazol-3-yl)-1-methyl-6H-pyrrolo[2,3-e][1,2,4]triazolo[4,3-a]pyridine] was tested, and the IC50 (BRD4-BD2) was no more than 100 nM and the IC50 (BRD4-BD1) was no more than 100 nM.
`CN[C@H]1CC[C@@H](Nc2cc3c(cc(C)n3Cc3ccccc3)n3c(C)nnc23)CC1` [Example 221, cis-N-(6-Benzyl-1,7-dimethyl-6H-pyrrolo[2,3-e][1,2,4]triazolo[4,3-a]pyridin-4-yl)-N′-methylcyclohexane-1,4-diamine] was tested, and the IC50 (BRD4-BD2) was no more than 100 nM and the IC50 (BRD4-BD1) was no more than 100 nM.
`CNC(=O)c1cc2c(ccc3nnc(C)n32)n1Cc1cc(Cl)cc(CN2CCC(F)(F)C2)c1` [Example 134, 6-{3-Chloro-5-[(3,3-difluoropyrrolidin-1-yl)methyl]benzyl}-N,1-dimethyl-6H-pyrrolo[2,3-e][1,2,4]triazolo[4,3-a]pyridine-7-carboxamide 2.4×(trifluoroacetate) Salt] was tested, and the IC50 (BRD4-BD2) was no more than 100 nM and the IC50 (BRD4-BD1) was no more than 100 nM.
`Cc1cc2c(ccc3nnc(C)n32)n1Cc1ccc(CO)cc1` [Example 49, {4-[(1,7-dimethyl-6H-pyrrolo[2,3-e][1,2,4]triazolo[4,3-a]pyridin-6-yl)methyl]phenyl}methanol] gave an IC50 (BRD4-BD2) of no more than 100 nM and an IC50 (BRD4-BD1) of 100 to 1000 nM.
For `CC(=O)N1CC(CC#N)(n2ccc(-c3cc4c(ccc5nnc(C)n54)n3Cc3cccc(Cl)c3)n2)C1` [Example 106, (1-acetyl-3-{3-[6-(3-chlorobenzyl)-1-methyl-6H-pyrrolo[2,3-e][1,2,4]triazolo[4,3-a]pyridin-7-yl]-1H-pyrazol-1-yl}azetidin-3-yl)acetonitrile], the IC50 (BRD4-BD2) was no more than 100 nM and the IC50 (BRD4-BD1) was no more than 100 nM.
`Cc1nnc2ccc3c(ccn3Cc3ccccc3)n12` [Example 1, 6-benzyl-1-methyl-6H-pyrrolo[2,3-e][1,2,4]triazolo[4,3-a]pyridine] gave an IC50 (BRD4-BD2) of no more than 100 nM and an IC50 (BRD4-BD1) of 100 to 1000 nM.
In the case of `CNC(=O)c1cc2c(ccc3nnc(C)n32)n1Cc1cccc(CN2CCC2)c1` [Example 122, 6-[3-(Azetidin-1-ylmethyl)benzyl]-N,1-dimethyl-6H-pyrrolo[2,3-e][1,2,4]triazolo[4,3-a]pyridine-7-carboxamide bis(trifluoroacetate) Salt], the IC50 (BRD4-BD2) is reported as no more than 100 nM and the IC50 (BRD4-BD1) is reported as no more than 100 nM.
Molecule `Cc1nnc2ccc3c(cc(-c4ccn(CCN(C)C)n4)n3Cc3ccccc3)n12` [Example 89, 2-[3-(6-benzyl-1-methyl-6H-pyrrolo[2,3-e][1,2,4]triazolo[4,3-a]pyridin-7-yl)-1H-pyrazol-1-yl]-N,N-dimethylethanamine] has an IC50 (BRD4-BD2) of no more than 100 nM and an IC50 (BRD4-BD1) of 100 to 1000 nM.
